Key:
[1] = test system: ERα binding to the pS2 enhancer; assay: Chromatin immunoprecipitation (ChIP) in MCF7 cells; format: cell-based, human; conditions: MCF7, 6 μM, 24 h, 1 nM E2, compared to E2 alone
Procedure: To test this hypothesis, we performed chromatin immunoprecipitation (ChIP) assays in MCF7 cells. The cells were treated for 24 h with vehicle and E2 either alone or in combination with VPC-16606.
E2-deprived MCF7 cells (1 × 10^7 cells per 10 cm plate) were treated for 24 h with DMSO alone, DMSO + E2 or compound + E2. One percent formaldehyde was added for 10 min at room temperature to perform DNA-protein crosslinking and quenched by treatment with 125 mM glycine for 5 min. Cell lysates sonicated with Sonic Dismembrator 550 instrument (Thermo Fisher Scientific, Waltham, MA, USA) to yield DNA fragments of 200–1000 bp in size. Lysates (from 3.3 × 10^6 cells) were immunoprecipitated with […] of anti-ERα antibody or […] of rabbit isotype control IgG (Santa Cruz Biotechnology, Dallas, TX, USA) using the EZ-ChIP chromatin immunoprecipitation kit (Millipore, Billerica, MA, USA). Bound DNA was quantified by qPCR (SYBR Green master mix, Invitrogen, Carlsbad, CA, USA) using the following primer sets: pS2 enhancer, forward 5′-[…]-3′ and reverse 5′-AGGGCGTGACACCAGGAAA-3′; GAPDH promoter, forward 5′-[…]-3′ and reverse 5′-TCGAACAGGAGCAGA GAGCGA-3′. The qPCR results are presented as fold enrichment of PCR amplification over control IgG antibody and normalized based on the total input (no precipitated chromatin). Primers for the GAPDH promoter were used as a negative control.

ERα = biological target: T1, ERα (Homo sapiens, UniProt P03372); assay: Estrogen-responsive luciferase reporter transcriptional assay in T47DKBluc cells; format: cell-based; conditions: 1 nM E2, 24 h, read-out: IC50 against ERα in the luciferase reporter-based transcriptional assay
T1 construct: endogenous in cells; host or cells: T47DKBluc (ATCC CRL-2865)
T1 sequence (P03372 1-595): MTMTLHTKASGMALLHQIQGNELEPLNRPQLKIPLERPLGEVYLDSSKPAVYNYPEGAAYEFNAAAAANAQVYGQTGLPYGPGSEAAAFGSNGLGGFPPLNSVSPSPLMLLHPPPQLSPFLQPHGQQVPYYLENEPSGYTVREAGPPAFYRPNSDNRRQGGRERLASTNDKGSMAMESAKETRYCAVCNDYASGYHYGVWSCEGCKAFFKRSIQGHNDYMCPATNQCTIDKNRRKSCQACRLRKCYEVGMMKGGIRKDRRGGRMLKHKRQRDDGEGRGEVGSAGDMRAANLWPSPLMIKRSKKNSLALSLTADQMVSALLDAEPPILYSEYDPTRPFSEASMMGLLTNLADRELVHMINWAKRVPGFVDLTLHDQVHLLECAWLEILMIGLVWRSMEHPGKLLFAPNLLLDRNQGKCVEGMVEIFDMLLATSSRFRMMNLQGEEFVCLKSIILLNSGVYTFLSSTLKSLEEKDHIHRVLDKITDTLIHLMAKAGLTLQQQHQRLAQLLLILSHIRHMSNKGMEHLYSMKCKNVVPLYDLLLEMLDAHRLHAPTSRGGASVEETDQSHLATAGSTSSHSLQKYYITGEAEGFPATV
Procedure: T47DKBluc cells (ATCC® CRL-2865^TM, Manassa, VA, USA) stably transfected with a 3X-ERE–promoter–luciferase reporter gene construct, pGL2.TATA.Inr.luc.neo [38], were used to measure inhibition of ERα-driven transcriptional activity of the luciferase reporter.
This assay was performed as described previously. Briefly, ERα-positive T47DKBluc cells were grown in phenol red-free RPMI 1640 supplemented with 10% CSS for 5 days. The cells were seeded on 96-well plates (2 × 10^4 cells/well). After 24 h, the cells were treated with test compounds in the presence of 1 nM E2. Twenty four hours post-treatment, the cells were lysed with 50 μL of 1× passive lysis buffer (Promega, Madison, WI, USA). Twenty microliters of the lysate from each treatment were transferred onto a white, 96-well, flat-bottomed plate (Corning Life Sciences, Corelle, NY, USA), and the luminescent signal was measured after adding 50 μL of the luciferase assay reagent (Promega, Madison, WI, USA) on a Tecan M200Pro microplate reader (Tecan, Menedorf, Switzerland). Differences in growth were normalised against total protein concentration, which was measured by the bicinchoninic acid (BCA) assay.

[2] = test system: mutant ERα (L536Q, Y537S, Y537C, Y537N, D538G, Y537S/D538G, S463P/Y537N); assay: Luciferase reporter assay with mutant ERα in transfected MDA-MB-231 cells; format: cell-based, human; conditions: all seven mutant forms, two-fold dilution starting at 50 µM, read-out: IC50 against constitutively-active mutant forms of ERα (luciferase)
Procedure: Figure 5 Predicted MD simulations and experimental effect of VPC-16606 on mutant forms of ERα. […] (C) E2 responsiveness of the synthesized mutants. (D) pcDNA3.1 plasmid encoding either the full-length WT or mutant forms of ERα was transfected into MDA-MB-231 cells along with the 3X-ERE-TATA luciferase reporter plasmid. The cells were treated with a two-fold dilution of VPC-16606 starting at 50 µM. […] Data points are expressed as the percentage of luciferase activity relative to DMSO control. Data were fitted using the log10 of concentration of the inhibitors vs. the response with GraphPad Prism 6. Error bars indicate the standard error of the mean (SEM) for 3 independent experiments performed in triplicates.
To test this hypothesis, a site-directed mutagenesis study was initiated on WT-ERα. MDA-MB-231 cells that were transfected with plasmids encoding either WT or mutant ERα (L536Q, Y537S, Y537C, Y537N, D538G, Y537S/D538G, S463P/Y537N) along with an E2-responsive luciferase reporter plasmid and a constitutively-active Renilla reporter plasmid. The cells were treated with VPC-16606 with two-fold dilution starting at 50 µM. […] This is particularly important because they corroborate the idea that such clinically-relevant mutant forms of the receptor, which cause the receptor to be E2 independent, can be inhibited by targeting an alternative functional site on the receptor. […]

CC(=O)N(/N=C1\Sc2c(C)cccc2C1=O)c1ccccc1Cl [VPC-16606]
ERα pull down of the promoter of pS2 (ChIP) [1]: significantly reduced | IC50 (ERα): 300 nM | IC50 [2]: 500 to 1000 nM
